In brackets after ≈: the same amount, converted by molar mass. Each block holds one molecule with its values, some of them ahead of it.
Experiments:
Huh-7 = test: Cytotoxicity against human Huh-7 cells assessed as reduction in cell viability incubated for 72 hrs by MTT assay; assay type: functional, cell-based; conditions: Huh-7, 72 h
[1] = Antiproliferative activity against human HCCM-5 cells assessed as reduction in cell viability measured after 72 hrs by MTT assay; assay type: functional, cell-based; conditions: HCCM-5, 72 h
PANC-1 = test: Antiproliferative activity against human PANC-1 cells assessed as reduction in cell viability incubated for 48 hrs by resazurin dye based cell titer-blue viability assay; assay type: functional; conditions: PANC-1, 48 h
BXPC-3 = test: Antiproliferative activity against human BXPC-3 cells assessed as inhibition of cell proliferation treated for 72 hrs by resazurin dye-based fluorescence assay; assay type: functional; conditions: BXPC-3, 72 h
Panc1005 = test: Antiproliferative activity against human Panc1005 cells assessed as reduction in cell growth incubated for 72 hrs by Cell titer-Glo luminescent cell viability assay; assay type: functional, cell-based; conditions: Panc1005, 72 h
ASPC1 = test: Cytotoxicity against human ASPC1 cells assessed as inhibition of cell growth by SRB assay; assay type: functional, cell-based
MDA-MB-231 = test: Antiproliferative activity against human MDA-MB-231 cells assessed as inhibition of cell viability measured after 72 hrs by MTT assay; assay type: functional, cell-based; conditions: MDA-MB-231, 72 h
HCT-116 [2] = test: Antiproliferative activity against human HCT-116 cells assessed as reduction in cell viability incubated for 48 hrs by WST-1 assay; assay type: functional, cell-based; conditions: HCT-116, 48 h
HT-29 [3] = test: Antiproliferative activity against human HT-29 cells assessed as reduction in cell viability measured after 48 hrs by WST-1 assay; assay type: functional, cell-based; conditions: HT-29, 48 h
[4] = Cytotoxicity against mouse Hepa-1 cells assessed as reduction in cell viability incubated for 24 hrs by MTS assay; assay type: functional, cell-based; conditions: Hepa-1, 24 h
MC-38 = test: Cytotoxicity against mouse MC-38 cells assessed as reduction in cell viability incubated for 24 hrs by MTS assay; assay type: functional, cell-based; conditions: MC-38, 24 h
Hepa 1-6 = test: Cytotoxicity against mouse Hepa1-6 cells assessed as inhibition of cell growth incubated for 24 hrs by MTT assay; assay type: functional, cell-based; conditions: Hepa1-6, 24 h
ID8 = test: Cytotoxicity against mouse ID8 cells assessed as inhibition of cell viability measured after 24 hrs by MTT assay; assay type: functional, cell-based; conditions: ID8, 24 h
B16 = test: Cytotoxicity against mouse B16 cells assessed as inhibition of cell viability measured after 24 hrs by MTT assay; assay type: functional, cell-based; conditions: B16, 24 h
[5] = Antiproliferative activity against human CRC cells assessed as reduction in cell viability incubated for 48 hrs by MTT assay; assay type: functional, cell-based
HT-29 [6] = test: Antiproliferative activity against human HT-29 cells assessed as inhibition of cell growth measured after 48 hrs by SRB assay; assay type: functional, cell-based; conditions: HT-29, 48 h
HCT-116 [7] = test: Antiproliferative activity against human HCT-116 cells assessed as reduction in cell growth incubated for 48 hrs by MTT assay; assay type: functional, cell-based; conditions: HCT-116, 48 h

IC50 (PANC-1): 590 nM
IC50 (BXPC-3): 590 nM
IC50 (Panc1005): 590 nM
Compound: Oc1c([C@@H](Nc2ccccn2)c2cccc(Cl)c2Cl)ccc2cccnc12
IC50 (ASPC1): 590 nM

IC50 (MDA-MB-231): 10600 nM
Compound: N#Cc1ccc(C(=O)/C=C/c2ccccc2Oc2ccccc2C=O)cc1

The remaining lines, values behind:

Compound: C/C=C/C#CC#C/C=C/c1ccco1
IC50 (Huh-7): 22400 nM
IC50 [1]: 59700 nM

Compound: C=C1CC[C@@H]2[C@](C)(CO)[C@H](O)CC[C@@]2(C)[C@@H]1C/C=C1/C(=O)OC[C@H]1O [ANDROGRAPHOLIDE]
IC50 (HCT-116 [2]): 19 µg/mL (≈ 54.2 µM)
IC50 (HT-29 [3]): 10 µg/mL (≈ 28.5 µM)

Compound: CCOc1ccccc1-n1c(C(C)N2CCN(C(=O)COc3ccc(Cl)cc3)CC2)nc2ccccc2c1=O (configuration not stated) [ERASTIN]
IC50 [4]: 500 nM
IC50 (MC-38): 500 nM
IC50 (Hepa 1-6): 500 nM
IC50 (ID8): 1200 nM
IC50 (B16): 5000 nM

Compound: CC(C)=CC/C=C(\C)[C@H]1CC[C@]2(C)[C@@H]1[C@H](O)C[C@@H]1[C@@]3(C)CC[C@H](O)C(C)(C)[C@@H]3[C@@H](O[C@@H]3O[C@H](CO)[C@@H](O)[C@H](O)[C@H]3O)C[C@]12C [GINSENOSIDE RH4]
IC50 [5]: 197000 nM
IC50 (HT-29 [6]): 197000 nM
IC50 (HCT-116 [7]): 178000 nM

— ChEMBL document CHEMBL5528041, “Ferroptosis-Based Therapeutic Strategies toward Precision Medicine for Cancer” (J Med Chem, 2024)
